From ChEMBL document CHEMBL1201862, “PubChem BioAssay data set” (2004)
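Tested at 5 concentrations; 48 h exposure; 96-well plates; endpoints linearly interpolated, else capped at highest concentration. At the GI50, growth is halved.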 Calls of active or inactive are those of the source. Rule as the data show it: active = GI50 up to about 1.1 µM and inactive = higher.

Assays:
Test in all cases: NCI tumour cell line growth inhibition, 48 h
SK-MEL-2 = system: SK-MEL-2
TK-10 = system: TK-10
HCC 2998 = system: HCC 2998
T47D = system: T47D
HL-60 = system: HL-60
DMS-273 = system: DMS-273
U-251 = system: U-251
NCI-H522 = system: NCI-H522
KM-20L2 = system: KM-20L2
DMS-114 = system: DMS-114
OVCAR-5 = system: OVCAR-5
OVCAR-3 = system: OVCAR-3
MDA-N = system: MDA-N
SF-539 = system: SF-539
KM12 = system: KM12
COLO 205 = system: COLO 205
SNB-19 = system: SNB-19
DU-145 = system: DU-145
A498 = system: A498
RXF 393 = system: RXF 393
BT-549 = system: BT-549
RXF 631 = system: RXF 631
OVCAR-4 = system: OVCAR-4
SF-295 = system: SF-295
MDA-MB-435 = system: MDA-MB-435
A549 = system: A549
XF498 = system: XF498
786-0 = system: 786-0
HT-29 = system: HT-29
UO-31 = system: UO-31
NCI/ADR-RES = system: NCI/ADR-RES
LXFL 529 = system: LXFL 529
SNB-75 = system: SNB-75
NCI-H226 = system: NCI-H226
MDA-MB-231 = system: MDA-MB-231
HOP-18 = system: HOP-18
CAKI-1 = system: CAKI-1
UACC-62 = system: UACC-62
SN12C = system: SN12C
SNB-78 = system: SNB-78
HOP-62 = system: HOP-62
IGROV-1 = system: IGROV-1
DLD-1 = system: DLD-1
EKVX = system: EKVX
PC-3 = system: PC-3
M14 = system: M14
LOX IMVI = system: LOX IMVI
MCF7 = system: MCF7
HOP-92 = system: HOP-92
NCI-H23 = system: NCI-H23
SK-OV-3 = system: SK-OV-3
M19-MEL = system: M19-MEL
ACHN = system: ACHN
SK-MEL-5 = system: SK-MEL-5
SR = system: SR
SF-268 = system: SF-268
Malme-3M = system: Malme-3M
UACC-257 = system: UACC-257
MOLT-4 = system: MOLT-4
OVCAR-8 = system: OVCAR-8
K562 = system: K562
CCRF-CEM = system: CCRF-CEM
HCT-116 = system: HCT-116
HCT-15 = system: HCT-15
SW-620 = system: SW-620
NCI-H460 = system: NCI-H460

COc1cc(Cc2nccc3cc(OC)c(OC)cc23)c(C(C)=O)cc1OC
GI50 (SK-MEL-2): 226 µM (inactive) | GI50 (TK-10): 139 µM (inactive) | GI50 (HCC 2998): 80.7 µM (inactive) | GI50 (T47D): 2.2 µM (inactive) | GI50 (HL-60): 59.7 µM (inactive) | GI50 (DMS-273): 14.9 µM (inactive) | GI50 (U-251): 2.54 µM (inactive) | GI50 (NCI-H522): 10.2 µM (inactive) | GI50 (KM-20L2): 56.9 µM (inactive) | GI50 (DMS-114): 5.94 µM (inactive) | GI50 (OVCAR-5): > 300 µM (inactive) | GI50 (OVCAR-3): 34.5 µM (inactive) | GI50 (MDA-N): 28.2 µM (inactive) | GI50 (SF-539): > 94.8 µM (inactive) | GI50 (KM12): 160 µM (inactive) | GI50 (COLO 205): 18.4 µM (inactive) | GI50 (SNB-19): 300 µM (inactive) | GI50 (DU-145): > 100 µM (inactive) | GI50 (A498): > 300 µM (inactive) | GI50 (RXF 393): 189 µM (inactive) | GI50 (BT-549): > 100 µM (inactive) | GI50 (RXF 631): > 750 µM (inactive) | GI50 (OVCAR-4): 6.71 µM (inactive) | GI50 (SF-295): > 300 µM (inactive) | GI50 (MDA-MB-435): 61 µM (inactive) | GI50 (A549): > 300 µM (inactive) | GI50 (XF498): 12.2 µM (inactive) | GI50 (786-0): 65.2 µM (inactive) | GI50 (HT-29): 199 µM (inactive) | GI50 (UO-31): > 139 µM (inactive) | GI50 (NCI/ADR-RES): > 300 µM (inactive) | GI50 (LXFL 529): 25.5 µM (inactive) | GI50 (SNB-75): 3.09 µM (inactive) | GI50 (NCI-H226): 10.8 µM (inactive) | GI50 (MDA-MB-231): 78.5 µM (inactive) | GI50 (HOP-18): > 300 µM (inactive) | GI50 (CAKI-1): > 300 µM (inactive) | GI50 (UACC-62): 53 µM (inactive) | GI50 (SN12C): 1.76 µM (inactive) | GI50 (SNB-78): 74.6 µM (inactive) | GI50 (HOP-62): 39.4 µM (inactive) | GI50 (IGROV-1): 173 µM (inactive) | GI50 (DLD-1): 136 µM (inactive) | GI50 (EKVX): 205 µM (inactive) | GI50 (PC-3): > 100 µM (inactive) | GI50 (M14): 187 µM (inactive) | GI50 (LOX IMVI): 23.6 µM (inactive) | GI50 (MCF7): 144 µM (inactive) | GI50 (HOP-92): 150 µM (inactive) | GI50 (NCI-H23): 124 µM (inactive) | GI50 (SK-OV-3): 128 µM (inactive) | GI50 (M19-MEL): 64.9 µM (inactive) | GI50 (ACHN): 153 µM (inactive) | GI50 (SK-MEL-5): 57.4 µM (inactive) | GI50 (SR): > 750 µM (inactive) | GI50 (SF-268): 1.56 µM (inactive) | GI50 (Malme-3M): 19.7 µM (inactive)

COC(=O)C(C(=O)C(=O)Nc1ccc(C)cc1C)c1csc(-n2nc(-c3ccccc3)cc2-c2ccccc2)n1 (stereo not given)
GI50 (UACC-257): > 100 µM (inactive) | GI50 (TK-10): > 100 µM (inactive) | GI50 (HCC 2998): > 100 µM (inactive) | GI50 (HL-60): > 100 µM (inactive) | GI50 (DMS-273): > 100 µM (inactive) | GI50 (U-251): 67.5 µM (inactive) | GI50 (NCI-H522): > 100 µM (inactive) | GI50 (KM-20L2): 57.5 µM (inactive) | GI50 (DMS-114): 23.8 µM (inactive) | GI50 (OVCAR-5): 49.9 µM (inactive) | GI50 (OVCAR-3): 86.5 µM (inactive) | GI50 (KM12): 65.2 µM (inactive) | GI50 (MOLT-4): 22.5 µM (inactive) | GI50 (OVCAR-8): > 100 µM (inactive) | GI50 (COLO 205): > 100 µM (inactive) | GI50 (SNB-19): > 100 µM (inactive) | GI50 (A498): > 100 µM (inactive) | GI50 (RXF 393): 92 µM (inactive) | GI50 (RXF 631): > 100 µM (inactive) | GI50 (K562): 93.5 µM (inactive) | GI50 (OVCAR-4): 82.4 µM (inactive) | GI50 (A549): > 100 µM (inactive) | GI50 (CCRF-CEM): 83.2 µM (inactive) | GI50 (XF498): > 100 µM (inactive) | GI50 (786-0): > 100 µM (inactive) | GI50 (HT-29): 31.4 µM (inactive) | GI50 (UO-31): 45.6 µM (inactive) | GI50 (LXFL 529): > 100 µM (inactive) | GI50 (HCT-116): 58.1 µM (inactive) | GI50 (HCT-15): 52.1 µM | GI50 (SNB-75): 6.37 µM (inactive) | GI50 (NCI-H226): 80.2 µM (inactive) | GI50 (HOP-18): 40.4 µM (inactive) | GI50 (CAKI-1): > 100 µM (inactive) | GI50 (UACC-62): 61.7 µM (inactive) | GI50 (SN12C): > 100 µM (inactive) | GI50 (SNB-78): > 100 µM (inactive) | GI50 (HOP-62): > 100 µM (inactive) | GI50 (IGROV-1): > 100 µM (inactive) | GI50 (DLD-1): > 100 µM (inactive) | GI50 (EKVX): 73.3 µM (inactive) | GI50 (M14): > 100 µM (inactive) | GI50 (SW-620): > 100 µM (inactive) | GI50 (LOX IMVI): 80 µM (inactive) | GI50 (HOP-92): > 100 µM (inactive) | GI50 (NCI-H460): > 100 µM (inactive) | GI50 (NCI-H23): > 100 µM (inactive) | GI50 (SK-OV-3): > 100 µM (inactive) | GI50 (M19-MEL): > 100 µM (inactive) | GI50 (ACHN): 53.5 µM (inactive) | GI50 (SR): > 100 µM (inactive) | GI50 (SF-268): 86.7 µM (inactive) | GI50 (Malme-3M): > 100 µM (inactive)
